Test results published in US20090087378A1, “Positron Tomography Method and Positron-Emitting Compound to Be Used Therein” (NARD INSTITUTE, LTD., priority 2006, published 2009).
Where two headings read alike, the source gives them in different places.

Experiments:
Format in all cases: in vivo, rhesus monkey
[1] = Test for determining the amount of uptake of positron-emitting source compound (PET of brain after intravenous injection); conditions: for kinetics in the brain: rhesus monkey, intravenous, PET
Experimental: A rhesus monkey (male, 5.5 kg in weight) was fasted overnight prior to the assay date. The monkey was seated on a monkey chair, and its head was fixed in a gantry of an animal PET camera (SHR-7700 manufactured by Hamamatsu Photonics K.K.) by a head positioner. Transmission measurement was performed for 30 minutes for […]. The injection products prepared in Production Examples 1-3 and 2 were then intravenously administered in doses of 77 ng/kg weight in terms of the amount of compound (Ia) and 230 ng/kg weight in terms of the amount of compound (Ib), respectively, and dynamic measurement was performed for 180 minutes. After the obtained images were reconstituted, a region of interest (ROI) was set in each part of the brain, and kinetics of radioactivity was determined in each region.

α7 nicotine receptor = biological target: T1, α7 nicotine receptor (Macaca mulatta, UniProt Q866A2)
T1 construct: from tissue; host or cells: brain of the living animal (in vivo PET)
T1 sequence (Q866A2 23-502): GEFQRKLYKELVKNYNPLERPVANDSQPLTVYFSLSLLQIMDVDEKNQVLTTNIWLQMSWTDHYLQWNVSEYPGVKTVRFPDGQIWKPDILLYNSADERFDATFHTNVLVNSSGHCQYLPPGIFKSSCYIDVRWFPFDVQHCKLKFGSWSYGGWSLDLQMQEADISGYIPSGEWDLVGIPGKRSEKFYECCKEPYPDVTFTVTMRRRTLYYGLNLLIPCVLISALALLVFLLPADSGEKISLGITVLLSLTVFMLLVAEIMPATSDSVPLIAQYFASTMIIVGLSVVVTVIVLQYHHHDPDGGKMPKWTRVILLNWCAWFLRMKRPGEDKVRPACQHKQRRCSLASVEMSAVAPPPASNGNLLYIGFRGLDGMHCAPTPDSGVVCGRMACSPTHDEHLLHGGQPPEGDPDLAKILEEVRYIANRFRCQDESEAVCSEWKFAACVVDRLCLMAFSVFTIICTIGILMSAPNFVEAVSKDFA
Experimental: (§1) After 30 minutes, compound (Ia) or (Ib) was administered by intravenous injection, and dynamic measurement was performed for 91 minutes. After the obtained images were reconstituted, a region of interest (ROI) was set in each part of the brain, and kinetics of radioactivity was determined in each region.

α4β2 nicotine receptor = assay: Test for selectivity to α7 nicotine receptor: PET brain uptake after pre-administration of α4β2-selective agonist A85380
Experimental: as §1

Question: Which “time of peak value of radioactivity, most/other parts of the brain” value ([1]; after the administration, brain parts except hippocampus) does the source give for `[11CH3]c1ccc(OC(=O)N2CCN3CCC2CC3)cc1` [Compound (Ia), 4-[^11C]methyl-phenyl 1,4-diazabicyclo[3.2.2]nonane-4-carboxylate] here?
Answer: Its value is “about 10 minutes”.

Question: And the “time of peak value of radioactivity, hippocampus” value ([1]; after the administration)?
Answer: Its value is 30 min.

Question: What about the “distribution of the concentrated compound in the brain” value ([1]; integrated images 40 to 60 minutes after the administration) of the same compound?
Answer: Its value is “high in hippocampus, corpus striatum, thalamus, cingulate gyrus and cerebral cortex, but low in cerebellum”.

Question: What about the “kinetics in the brain” value [1] of the same compound?
Answer: Its value is “relatively fast”.

Question: What about the “uptake into each part of the brain after pre-administered α7 nicotine receptor-selective agonist” value (α7 nicotine receptor; SSR180711A 1 or 5 mg/kg i.v. 30 minutes before the compound, depending on the dose of the agonist) of the same compound?
Answer: Its value is “reduced to the level in the cerebellum”.

Question: And the “binding selectivity to α7 nicotine receptor” value (α7 nicotine receptor; conclusion from blocking with SSR180711A and A85380)?
Answer: Its value is “selective binding to α7 nicotine receptor”.

Question: What about the “effect of pre-administered α4β2 nicotine receptor-selective agonist on uptake into each part of the brain” value (α4β2 nicotine receptor; A85380 5 mg/kg i.v. 30 minutes before the compound) of the same compound?
Answer: The value was “almost no effect”.

Question: Which results are given for `O=C(Oc1ccc([76Br])cc1)N1CCN2CCC1CC2` [Compound (Ib), 4-[^76Br]bromophenyl 1,4-diazabicyclo[3.2.2]nonane-4-carboxylate]?
Answer: time of peak value of radioactivity, hippocampus ([1]; after the administration): 60 min; amount of uptake in the brain ([1]; compared with compound (Ia)): not as large as that of compound (Ia); kinetics in the brain [1]: generally slow; binding selectivity to α7 nicotine receptor (α7 nicotine receptor; rhesus monkey, in vivo): selective binding to α7 nicotine receptor; uptake into each part of the brain after pre-administered α7 nicotine receptor-selective agonist (α7 nicotine receptor; rhesus monkey, in vivo): reduced to the level in the cerebellum; effect of pre-administered α4β2 nicotine receptor-selective agonist on uptake into each part of the brain (α4β2 nicotine receptor; rhesus monkey, in vivo): almost no effect
